Laboratory results from PubChem BioAssay AID488890 (Southern Research Specialized Biocontainment Screening …, 2010).
Records with an inconclusive call do not appear. The source made the active and inactive calls. The rule behind the calls is not given here.

These molecules were tested on Mycobacterium tuberculosis non-replicating, growth inhibition (assay: growth inhibition of non-replicating M. tuberculosis (AID 488890)).
For CCCCOC(=O)c1ccc(OC(=O)c2cccnc2)cc1, the IC50 was 13.4 µM (inactive).
Work on CCOCC(=O)Nc1nc2ccc(C)cc2s1 yielded an IC50 of 2.06 µM.
With O=C(COc1ccc2ccccc2c1)Nc1nccs1 the IC50 was 5.88 µM.
In the case of O=C(Nc1ccccn1)c1ccc(C(=O)c2ccccc2)cc1, the IC50 is reported as 18.4 µM (inactive).
In the case of O=C(Oc1ccccc1)c1ccc(NC(=O)c2ccco2)cc1, the IC50 is reported as 7.33 µM.
COc1ccc(C(=O)NN/C(C)=C/C(=O)c2ccccc2)cc1 showed an IC50 of 1.34 µM.
With Cc1cc(=O)[nH]c(-n2nc(C)cc2C)n1 the IC50 was 4.88 µM.
In the case of COC(=O)c1ccc(OCC(=O)c2cccc(OC)c2)cc1, the IC50 is reported as 11 µM (inactive).
CCc1cc2c(=O)n(C(C)C(=O)OC3CCCCC3)cnc2s1 (stereo not given) was tested, and the IC50 was 16.6 µM (inactive).
For Cc1ccc(S(=O)(=O)/N=C(\CCl)N2CCOCC2)cc1, the IC50 was 11.9 µM (inactive).
Molecule C=C[C@]1(C)C=C2CCC3[C@](C)(CCC[C@@]3(C)C(=O)O)C2CC1 (stereo not given in full) has an IC50 of 6.33 µM.
Work on FC(F)(F)c1ccc(-c2nnc(-c3cccnc3)o2)cc1 yielded an IC50 of 6.48 µM.
COC(=O)c1sc(NC(=O)c2ccc([N+](=O)[O-])o2)c(C#N)c1C was tested, and the IC50 was 4.3 µM.
For O=c1[nH]c(=O)n(Cc2ccccc2Cl)c(O)c1/C=C1/C=CC=N1, the IC50 was 0.25 µM.
For O=Cc1ccc(OC2OCCOC2Oc2ccc(C=O)cc2)cc1 (stereo not given), the IC50 was 14.2 µM (inactive).
Cc1cccc(NC(=O)COC(=O)CCc2c[nH]c3ccccc23)c1C was tested, and the IC50 was 6.12 µM.
For O=C(CN1CCC(Cc2ccccc2)CC1)NC(=O)NC1CCCCC1, the IC50 was 19 µM (inactive).
In the case of C#CCSc1nnc(-c2cccc3ccccc23)o1, the IC50 is reported as 3.46 µM.
With CCOC(=O)C1CCN(CCCSc2ccc(Cl)cc2)CC1 the IC50 was 46.4 µM (inactive).
Clc1cccc2c1Sc1ccccc1CC2N1CCNCC1 (stereo not given) showed an IC50 of 5.98 µM.
With c1coc(CNc2nc(N3CCCCC3)nc3ccccc23)c1 the IC50 was 2.9 µM.
Nc1ccccc1Nc1ccccc1 showed an IC50 of 1.81 µM.
In the case of O=C(NCCC1=CCCCC1)c1ccc(F)cc1, the IC50 is reported as 1.36 µM.
O=[N+]([O-])c1ccc(CSc2nnc(-c3cccnc3)o2)cc1 showed an IC50 of 0.81 µM.
In the case of N#Cc1ccc(N=c2ssnc2Cl)cc1, the IC50 is reported as 18.1 µM (inactive).
In the case of CCN(CC)C(=O)c1sc2nc(-c3ccccc3)ccc2c1N, the IC50 is reported as 14.7 µM (inactive).
Molecule Oc1ccc2cc(Br)ccc2c1CN1CCCC1 has an IC50 of 7.29 µM.
With CCC(CC)COC(=O)C(C#N)c1nc2ccccc2nc1N1CCN(CC)CC1 (stereo not given) the IC50 was 15.4 µM (inactive).
CN1CCN(c2cc3c(cc2F)c(=O)c(C(=O)O)cn3CCF)CC1 showed an IC50 of 7.52 µM.
With O=C(Nc1nnc(-c2cc(Cl)ccc2Cl)o1)C1=COCCO1 the IC50 was 22 µM (inactive).
In the case of CN=C1S/C(=C\c2ccc(OCC(=O)OC)c(OC)c2)C(=O)N1C, the IC50 is reported as 16.5 µM (inactive).
Molecule COC(=O)CCS(=O)(=O)c1nc(-c2ccccc2)cc(C(F)(F)F)n1 has an IC50 of 2.25 µM.
Cc1ccc2c(c1)c(C1=c3ccccc3=NC1=O)c(O)n2C showed an IC50 of 4.42 µM.
For Cc1nnc(SCCC(=O)Nc2ccc(Cl)cc2)o1, the IC50 was 39.2 µM (inactive).
O=C(Nc1nc(-c2ccccn2)cs1)c1ccco1 gave an IC50 of 6.64 µM.
O=C(Cn1cc([N+](=O)[O-])nc1[N+](=O)[O-])N1CCN(c2ccccc2)CC1 was tested, and the IC50 was 12.8 µM (inactive).
In the case of Cc1cc(C(=O)NNc2ccc(Cl)cc2)no1, the IC50 is reported as 1.61 µM.
Brc1c(-c2ccc3c(c2)OCO3)nc2ncccn12 was tested, and the IC50 was 1.1 µM.
Work on Cc1ccc(/C=N/NC(=O)c2ccncc2)s1 yielded an IC50 of 1.43 µM.
With CCOC(=O)c1ccc(-c2ccc(C(=O)Nc3cccnc3)o2)cc1 the IC50 was 0.84 µM.
In the case of Clc1ccc(SCCCCN2CCNCC2)cc1, the IC50 is reported as 39.3 µM (inactive).
O=[N+]([O-])c1ccc(/C=N/n2c(CO)nc3ccccc32)s1 was tested, and the IC50 was 1.18 µM.
CC(C)(C)NC(=O)C(=O)NNC(=O)c1ccc(C(C)(C)C)cc1 showed an IC50 of 5.82 µM.
With CC(C)Cn1c([N+](=O)[O-])nc2c1c(=O)[nH]c(=O)n2C the IC50 was 5.81 µM.
In the case of CCCCCCCC(=O)N/N=C(/C)c1c(O)cc(C)oc1=O, the IC50 is reported as 4.26 µM.
In the case of COC(=O)COc1ccc(S(=O)(=O)N2CCN(c3ccccc3F)CC2)cc1, the IC50 is reported as 27.9 µM (inactive).
For CCOc1ccc(NC(=O)CCC(=O)N/N=C/c2ccc([N+](=O)[O-])s2)cc1, the IC50 was 8.29 µM.
For N/C(=N\OC(=O)c1cccs1)c1ccccc1, the IC50 was 24 µM (inactive).
Cn1cnc([N+](=O)[O-])c1Sc1ccc(Br)cc1 was tested, and the IC50 was 23.6 µM (inactive).
O=C(c1cccc2cccc(O)c12)N1CCCCC1 showed an IC50 of 3.82 µM.
Work on Cc1ccc2[nH]c(C)c(CCNC(=O)c3cc4cc([N+](=O)[O-])ccc4oc3=O)c2c1 yielded an IC50 of 9.15 µM.
COc1cccc(OCc2nnc(-c3cccs3)o2)c1 was tested, and the IC50 was 1.57 µM.
O=Cc1ccnc(-c2ccc(OC(=O)c3ccco3)cc2)n1 was tested, and the IC50 was 18.2 µM (inactive).
CCOC(=O)CCS(=O)(=O)c1nc(-c2ccccc2)cc(C(F)(F)F)n1 gave an IC50 of 0.99 µM.
For CC(C)(C)c1ccc(NC(=O)COc2ccc(-n3ccnc3)cc2)cc1, the IC50 was 30.2 µM (inactive).
Work on COc1cc(/C=N/NC(=O)c2ccccn2)ccc1OC(=O)c1cccs1 yielded an IC50 of 2.85 µM.
CCOCCOC(=O)c1ccc(NC(=O)C2COc3ccccc3O2)cc1 (stereo not given) was tested, and the IC50 was 4.16 µM.
For COc1n[nH]c(C(=O)Nc2cc(F)ccc2C)c1[N+](=O)[O-], the IC50 was 12.4 µM (inactive).
For Cc1ccc(C(=O)n2c(N)nc3ccccc32)cc1, the IC50 was 16.6 µM (inactive).
For Cn1c(-c2cccc([N+](=O)[O-])c2)cnc1NCc1cccc(F)c1, the IC50 was 29.3 µM (inactive).
Oc1ccc(F)c2cccnc12 was tested, and the IC50 was 1.61 µM.
For Cc1ccc2nc(C)c3c(c2c1)SCC3, the IC50 was 11.6 µM (inactive).
With CCc1nnc(N/N=C/c2c(F)cccc2Cl)n1N the IC50 was 15.3 µM (inactive).
With CC1(C)CC(=O)C2=C(C1)OC(N)=C([N+](=O)[O-])C2c1ccc(C#N)s1 (stereo not given) the IC50 was 11.1 µM (inactive).
CCN1CSC(=S)N(Cc2ccc(OC)cc2)C1 was tested, and the IC50 was 18.5 µM (inactive).
With Cc1[nH]n(-c2cccc(Cl)c2)c(=O)c1/C=N/n1c(C)nc2ccccc2c1=O the IC50 was 19.5 µM (inactive).
COc1ccc(-c2nnn(CC(=O)OC3CCCCC3)n2)cc1OC was tested, and the IC50 was 7.74 µM.
With COc1ccc(CC(=O)OCC(=O)Nc2ccc(Br)cc2)cc1 the IC50 was 14.6 µM (inactive).
In the case of COc1ccc(OCCOC(=O)c2cccs2)cc1, the IC50 is reported as 27.6 µM (inactive).
For O=C1N(c2ccc3c(c2)OCCO3)C(c2ccccc2)C1(F)F (stereo not given), the IC50 was 2.28 µM.
With CC(/C=C\C=C\c1ccccc1)=N\NC(=O)c1cncc(Br)c1 the IC50 was 31.2 µM (inactive).
In the case of CCc1nnc(N/N=C/c2ccc(-c3ccc([N+](=O)[O-])cc3)o2)n1N, the IC50 is reported as 7.59 µM.
In the case of Cc1cccnc1NC(=O)c1c(O)c2ccccc2n(C)c1=O, the IC50 is reported as 32 µM (inactive).
In the case of CCC(=O)c1ccc(OCC(=O)OCC(=O)N2CCc3ccccc3C2)cc1, the IC50 is reported as 13 µM (inactive).
For C=CCn1c(NC(=O)c2ccccc2)nc2ccccc21, the IC50 was 21.6 µM (inactive).
Molecule Cc1[nH]n2c(=O)c3c(nc2c1-c1ccc(Cl)cc1)CCC3 has an IC50 of 3.4 µM.
O=C1c2ccccc2-n2c1nc1ccccc1c2=O showed an IC50 of 2.8 µM.
In the case of CCN(CC)S(=O)(=O)c1ccc(C(=O)OCn2nnc3ccccc3c2=O)cc1, the IC50 is reported as 15.4 µM (inactive).
O=C(OCC(=O)N1CCCc2ccccc21)c1ccc(S(=O)(=O)C(F)F)cc1 was tested, and the IC50 was 20.5 µM (inactive).
With CC1(c2nnc(Cc3ccccc3)o2)CC(c2ccccc2[N+](=O)[O-])=NO1 (stereo not given) the IC50 was 10.5 µM (inactive).
With CNC(=S)N1CCN(c2c(F)cc3c(=O)c(C(=O)O)cn(C4CC4)c3c2OC)CC1C (stereo not given) the IC50 was 0.42 µM.
Molecule CCS(=O)(=O)c1ncc(Cl)c(C(=O)Nc2ccc(S(=O)(=O)N3CCC(C)CC3)cc2)n1 has an IC50 of 9.7 µM.
With CCOC(=O)c1c(-c2ccccc2)csc1NC(=O)CCN1CCOCC1 the IC50 was 24.4 µM (inactive).
COC(=O)c1ccc(Sc2nnnn2-c2ccccc2)c([N+](=O)[O-])c1 gave an IC50 of 7.81 µM.
Work on CC(/C=C/c1ccccc1F)=N\NC(=O)c1ccccc1 yielded an IC50 of 3.87 µM.
In the case of CC1(C)Oc2ccc(NC(=O)C3COc4ccccc4O3)cc2O1 (stereo not given), the IC50 is reported as 12.9 µM (inactive).
With O=C(CCSc1nnc(-c2ccncc2)o1)Nc1ccc(Cl)cc1 the IC50 was 14.7 µM (inactive).
C/C(CC(=O)Nc1ccc(N(C)C)cc1)=N\NC(=O)c1ccncc1 showed an IC50 of 0.3 µM.
With O=C(CCNc1cccc(Cl)c1)c1cccs1 the IC50 was 11 µM (inactive).
O=c1oc2ccccc2c2c1nc(C(F)(F)F)n2-c1ccccc1 gave an IC50 of 2 µM.
For O=C(Nc1nnc(-c2ccccc2Cl)o1)c1ccco1, the IC50 was 6.7 µM.
In the case of CS(=O)(=O)c1sc(C#N)c2c1C(=O)CC(c1ccccc1)C2 (stereo not given), the IC50 is reported as 0.82 µM.
With O=C(NC1CCCC1)c1cc(-c2cccs2)on1 the IC50 was 5.66 µM.
In the case of Cc1ccccc1C1=N/C(=C/c2cccnc2)C(=O)O1, the IC50 is reported as 19.9 µM (inactive).
O=C(COc1ccc2ccccc2c1)Nc1ccncc1 was tested, and the IC50 was 3.17 µM.
O=C(NNc1nc2ccccc2s1)Nc1ccc(F)cc1 was tested, and the IC50 was 14.4 µM (inactive).
In the case of CCOc1ccc2nc(NC(=O)c3cnc(C)cn3)sc2c1, the IC50 is reported as 4.32 µM.
Work on Cc1ccc(NC(=O)COc2ccc3c(c2)CCC3)nc1 yielded an IC50 of 6.66 µM.
In the case of O=C(COc1ccccc1)Nc1ccc(Cl)cn1, the IC50 is reported as 7.51 µM.
For COc1cccc(-c2nnc(NC(=O)c3ccc(S(=O)(=O)N(CC(C)C)CC(C)C)cc3)o2)c1, the IC50 was 13.7 µM (inactive).
In the case of Fc1ccc(-c2nn(-c3ccccc3)cc2CNCc2ccccc2)cc1, the IC50 is reported as 8.72 µM.
Work on Cc1oc(=O)c(NC(=O)c2ccccc2)cc1C(=O)c1ccccc1 yielded an IC50 of 5.33 µM.
Work on O=C(Nc1cccc(S(=O)(=O)N2CCCCC2)c1)c1ccc([N+](=O)[O-])o1 yielded an IC50 of 4.07 µM.
Cc1cc(C)n(-c2nc(NCCN(C)C)c3c4c(sc3n2)CCCC4)n1 was tested, and the IC50 was 9.66 µM.
With Cc1ccc(NC(=O)C2CC2c2ccccc2)cc1 (stereo not given) the IC50 was 15 µM (inactive).
In the case of Cc1cccc(-c2nnc3sc(-c4ccccc4C)nn23)c1, the IC50 is reported as 22.4 µM (inactive).
Work on COc1ccc(C(=O)Nc2nnc(C3=COCCO3)o2)cc1 yielded an IC50 of 7.69 µM.
With O=C(Oc1ccccc1)c1cc2ccccc2o1 the IC50 was 6.73 µM.
CN(C)c1nc(-c2ccccn2)nnc1-c1ccccc1 gave an IC50 of 9.74 µM.
With CCOC(=O)COc1ccc2c(c1)C(=O)CC(C)(c1cccnc1)O2 (stereo not given) the IC50 was 10.2 µM (inactive).
Cc1cc(N/N=C/c2ccc(F)cc2)nc(-n2nc(C)cc2C)n1 showed an IC50 of 4.92 µM.
For CC(C)(C)c1ccc(S(=O)(=O)NNC(=O)c2cc3ccccc3[nH]2)cc1, the IC50 was > 25 µM (inactive).
O=C(OCC#CCSc1nnc(-c2ccncc2)o1)c1cccs1 was tested, and the IC50 was 4.13 µM.
For c1ccc(-c2nnc(SCc3cn4ccsc4n3)o2)cc1, the IC50 was 11.1 µM (inactive).
For O=C(Cc1ccccc1)Nc1ccc(C(=O)NCC2COc3ccccc3O2)cc1 (stereo not given), the IC50 was 28.3 µM (inactive).
